Reference: patent US12077503B2, “Substituted cyclic amides and their use as herbicides” (FMC CORPORATION, priority 2015, dated 2024)

What was measured:
Assay type in all cases: in vivo
Kochia (Kochia scoparia) = assay: Test A preemergence; conditions: Bassia scoparia, pre-emergence, 240 h; for pest or weed control at 125 g/ha: 125 g ai/ha, preemergence, 0 to 100 scale where 0 is no effect and 100 is complete control, read-out: Kochia plant response rating; for pest or weed control at 500 g/ha: 500 g ai/ha, Preemergence, visual injury vs untreated controls after approximately 10 d, read-out: Kochia plant response rating (0 to 100 scale where 0 is no effect and 100 is complete control)
Method in brief: (§1)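 Each rating is a visual injury score from 0 to 100 given about 10 d after treatment, judged against untreated controls kept alongside in the greenhouse. In loam soil–sand blend, seeds got a preemergence directed soil spray, while postemergence plants were 2 to 10 cm tall at spraying.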

[1] = system: barnyardgrass (Echinochloa crus-galli); assay: Test A preemergence; conditions: Echinochloa crus-galli, pre-emergence, 240 h; for pest or weed control at 125 g/ha: 125 g ai/ha, preemergence, 0 to 100 scale where 0 is no effect and 100 is complete control, read-out: Barnyardgrass plant response rating; for pest or weed control at 500 g/ha: 500 g ai/ha, Preemergence, visual injury vs untreated controls after approximately 10 d, read-out: Barnyardgrass plant response rating (0 to 100 scale where 0 is no effect and 100 is complete control)
Method in brief: as §1

[2] = system: giant foxtail (Setaria faberii); assay: Test A preemergence; conditions: Setaria faberi, pre-emergence, 240 h; for pest or weed control at 125 g/ha: 125 g ai/ha, preemergence, 0 to 100 scale where 0 is no effect and 100 is complete control, read-out: Foxtail, Giant plant response rating; for pest or weed control at 500 g/ha: 500 g ai/ha, Preemergence, visual injury vs untreated controls after approximately 10 d, read-out: Foxtail, Giant plant response rating (0 to 100 scale where 0 is no effect and 100 is complete control)
Method in brief: as §1

[3] = system: pigweed (Amaranthus retroflexus); assay: Test A preemergence; conditions: Amaranthus retroflexus, pre-emergence, 240 h; for pest or weed control at 125 g/ha: 125 g ai/ha, preemergence, 0 to 100 scale where 0 is no effect and 100 is complete control, read-out: Pigweed plant response rating; for pest or weed control at 500 g/ha: 500 g ai/ha, Preemergence, visual injury vs untreated controls after approximately 10 d, read-out: Pigweed plant response rating (0 to 100 scale where 0 is no effect and 100 is complete control)
[4] = system: ragweed (common ragweed, Ambrosia elatior); assay: Test A preemergence; conditions: Ambrosia artemisiifolia, pre-emergence, 240 h; for pest or weed control at 125 g/ha: 125 g ai/ha, preemergence, 0 to 100 scale where 0 is no effect and 100 is complete control, read-out: Ragweed plant response rating; for pest or weed control at 500 g/ha: 500 g ai/ha, Preemergence, visual injury vs untreated controls after approximately 10 d, read-out: Ragweed plant response rating (0 to 100 scale where 0 is no effect and 100 is complete control)
Method in brief: as §1

[5] = system: ryegrass, Italian (Italian ryegrass, Lolium multiflorum); assay: Test A preemergence; conditions: Lolium multiflorum, pre-emergence, 240 h; for pest or weed control at 125 g/ha: 125 g ai/ha, preemergence, 0 to 100 scale where 0 is no effect and 100 is complete control, read-out: Ryegrass, Italian plant response rating; for pest or weed control at 500 g/ha: 500 g ai/ha, Preemergence, visual injury vs untreated controls after approximately 10 d, read-out: Ryegrass, Italian plant response rating (0 to 100 scale where 0 is no effect and 100 is complete control)
Method in brief: as §1

[6] = system: giant foxtail (Setaria faberii); assay: Test A postemergence; conditions: Setaria faberi, post-emergence, 240 h, 125 g ai/ha, postemergence, visual injury rating after approximately 10 d; read-out: Foxtail, Giant plant response rating (0 to 100 scale, 0 no effect, 100 complete control)
Method in brief: as §1

[7] = system: ragweed (common ragweed, Ambrosia elatior); assay: Test A postemergence; conditions: Ambrosia artemisiifolia, post-emergence, 240 h, 125 g ai/ha, postemergence, visual injury rating after approximately 10 d; read-out: Ragweed plant response rating (0 to 100 scale, 0 no effect, 100 complete control)
Method in brief: as §1

[8] = system: ryegrass, Italian (Italian ryegrass, Lolium multiflorum); assay: Test A postemergence; conditions: Lolium multiflorum, post-emergence, 240 h, 125 g ai/ha, postemergence, visual injury rating after approximately 10 d; read-out: Ryegrass, Italian plant response rating (0 to 100 scale, 0 no effect, 100 complete control)
Method in brief: as §1

[9] = system: wheat (Triticum aestivum); assay: Test A postemergence; conditions: Triticum aestivum, post-emergence, 240 h, 125 g ai/ha, postemergence, visual injury rating after approximately 10 d; read-out: Wheat plant response rating (0 to 100 scale, 0 no effect, 100 complete control)
Method in brief: as §1

[10] = system: barnyardgrass (Echinochloa crus-galli); assay: Test B flooded paddy test; conditions: Echinochloa crus-galli, Flood, 250 g ai/ha; scale of 0 to 100 where 0 is no effect and 100 is complete control; read-out: Barnyardgrass plant response rating
Method in brief: (§2)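 Rating scale 0–100 (visual, vs untreated controls) after a 13–15 d greenhouse period; application to the flood layer, 3 cm above soil and maintained; plants at 2-leaf stage when treated.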

[11] = system: ducksalad (Heteranthera limosa); assay: Test B flooded paddy test; conditions: Heteranthera limosa, Flood, 250 g ai/ha; scale of 0 to 100 where 0 is no effect and 100 is complete control; read-out: Ducksalad plant response rating
Method in brief: as §2

rice (Oryra sativa) = assay: Test B flooded paddy test; conditions: Oryza sativa, Flood, 250 g ai/ha; scale of 0 to 100 where 0 is no effect and 100 is complete control; read-out: Rice plant response rating
Method in brief: as §2

[12] = system: sedge, umbrella (small-flower umbrella sedge, Cyperus difformis); assay: Test B flooded paddy test; conditions: Cyperus difformis, Flood, 250 g ai/ha; scale of 0 to 100 where 0 is no effect and 100 is complete control; read-out: Sedge, Umbrella plant response rating
Method in brief: as §2

SMILES | pest or weed control at 125 g/ha (Kochia (Kochia scoparia)) [%] | pest or weed control at 500 g/ha (Kochia (Kochia scoparia)) [%] | pest or weed control at 125 g/ha [1] [%] | pest or weed control at 500 g/ha [1] [%] | pest or weed control at 125 g/ha [2] [%] | pest or weed control at 500 g/ha [2] [%] | pest or weed control at 125 g/ha [3] [%] | pest or weed control at 500 g/ha [3] [%] | pest or weed control at 125 g/ha [4] [%] | pest or weed control at 500 g/ha [4] [%] | pest or weed control at 125 g/ha [5] [%] | pest or weed control at 500 g/ha [5] [%] | pest or weed control at 125 g/ha [6] [%] | pest or weed control at 125 g/ha [7] [%] | pest or weed control at 125 g/ha [8] [%] | plant injury at 125 g/ha [9] [%] | pest or weed control at 250 g/ha [10] [%] | pest or weed control at 250 g/ha [11] [%] | pest or weed control at 250 g/ha (rice (Oryra sativa)) [%] | pest or weed control at 250 g/ha [12] [%]
Cc1c(F)ccc([C@H]2CN(C)C(=O)[C@@H]2C(=O)Nc2ccc(F)cc2F)c1F [Compound 835] | 80 | 90 | 90 | 100 | 90 | 100 | 20 | 40 | 0 | 0 | 30 | 70 | 90 | 0 | 50 | 0 | 50 | 70 | 20 | 0
O=C1NC[C@H](c2cc(F)c(C(F)(F)F)c(F)c2)[C@H]1C(=O)Nc1ccccc1F [Compound 837] | 90 | 90 | 90 | 90 | 90 | 90 | 20 | 80 | 70 | 70 | 50 | 70 | 90 | 10 | 50 | 0 | 0 | 70 | 0 | 0
O=C1NC[C@H](c2cc(F)c(C(F)(F)F)c(F)c2)[C@H]1C(=O)Nc1cccc(F)c1F [Compound 838] | 70 | 80 | 90 | 90 | 90 | 90 | 80 | 90 | 40 | 60 | 20 | 60 | 90 | 40 | 30 | 30 | 40 | 100 | 0 | 0
CSc1ccccc1NC(=O)[C@H]1C(=O)N(C)C[C@@H]1c1cc(C)cc(F)c1 [Compound 851] | 20 | 70 | 90 | 90 | 90 | 90 | 60 | 90 | 0 | 30 | 0 | 70 | 90 | 0 | 0 | 20 | 0 | 90 | 0 | 0
COc1cc([C@H]2CN(C)C(=O)[C@@H]2C(=O)Nc2ccccc2F)cc(C(F)(F)F)c1 [Compound 855] | 20 | 30 | 90 | 100 | 90 | 90 | 30 |  | 0 | 0 | 0 | 30 | 90 | 0 | 20 | 50 | 70 | 75 | 0 | 0
CN1C[C@H](c2cccc(OC(F)(F)C(F)F)c2)[C@@H](C(=O)Nc2ccccc2S(C)(=O)=O)C1=O [Compound 864] | 60 | 80 | 90 | 90 | 90 | 90 | 90 | 90 | 20 | 50 | 0 | 50 | 70 | 0 | 50 | 50 | 50 | 90 | 40 | 50
CN1C[C@H](c2cc(F)cc(F)c2)[C@@H](C(=O)Nc2ccc(C(F)(F)F)cn2)C1=O [Compound 869] | 0 | 0 | 60 | 90 | 90 | 90 | 0 | 0 | 0 | 0 | 0 | 0 | 60 | 0 | 0 | 0 | 0 | 60 | 0 | 0
